Assays:
[1] = biological target: recombinant hDOT1L (Homo sapiens, UniProt Q8TEK3); assay: AlphaLISA DOT1L enzymatic inhibition assay on purified nucleosomes
[2] = Microsomal stability; type: in vitro ADME; conditions: mouse, liver microsomes
[3] = test system: MV4-11 cells; assay: Flow cytometry cell cycle analysis (propidium iodide); type: cell-based, human; conditions: MV4-11, 1 µM
Description: (§1) A decrease in the S phase of the cell cycle was also observed from 24% (day 8) to 20% (day 10), 13% (day 12).
(§2) In a 12-well plate, 2 mL exponentially growing MV4-11 cells were plated with a density of 2 × 10^5 cells/mL. […] Culture media and drugs were replaced every 2–3 days and cells were split back to a density of 2 × 10^5 cells/mL at the same time. Cells were harvested on days 8, 10, 12 and split to allow the analysis of cell cycle and Annexin V staining simultaneously. The apoptosis ratio was detected by an Annexin V-APC/7-AAD double staining assay (SONY 3804610) and cells were prepared according to the manufacturer’s recommendations. Cells for the cell cycle analysis were collected by centrifugation at 500× g for 5 min at 4 °C. The pellets were washed once with cold PBS and then fixed with 70% ethanol on ice for 30 min. Afterwards, the cells were washed once with cold PBS and stained with propidium iodide (Invitrogen P3566) for 30 min at 37 °C. Samples were measured using an Attune NxT acoustic focusing cytometer (Life Technologies), data were analyzed by FlowJo.

[4] = test system: H3K79me2 in MV4-11 cells; assay: Western blot of H3K79me2 normalized to total H3; type: cell-based, human; conditions: MV4-11, 4 days, increasing concentrations
Description: Next, we evaluated the effect on the demethylation of H3K79 in MLL-AF9 MOLM13 cells (Figure 7B).
The non-adherent cell lines MV4-11, MOLM-13, and KOPN8 exponentially growing cells were plated in 12-well plates (1 plate for each experiment) at a rate of 500,000 cells per well at a final volume of 2 mL. The cells were incubated in the presence of increasing inhibitor concentrations (0.1, 0.32, 1, 3.2, 10 µM). The cells (1 to 2 million) were harvested at the time chosen according to the line in order to extract the histones and the RNAs.
For the isolation of histones from cells, 1 to 2 million cells were collected, after exposure to the chosen treatment, by centrifugation at 200× g and lysed by 5 min of incubation on ice in 250 μL of the nuclear extraction buffer (10 mM Tris-HCl, 10 mM MgCl2, 25 mM KCl, 1% Triton X-100, 8.6% sucrose, Roche Protease inhibitor tablet 1836145). The nuclei were collected by centrifugation at 600× g for 5 min at 4 °C. The supernatant was removed and the histones were extracted for 1 h with 0.4 N cold sulfuric acid. The extracts were clarified by centrifugation at 10,000× g for 10 min at 4 °C and transferred to a microcentrifuge tube containing a 10× volume of ice-cold acetone. The histones were precipitated at ‒20 °C overnight and recovered by centrifugation at 1500× g for 10 min in the form of a pellet and then resuspended in 80 μL of water. Histones were quantified by absorbance measured by a nanodrop at 276 nm.
After extraction, the histones (500ng) were separated on 4–20% Tris-Glycine gels (Invitrogen) and transferred onto a nitrocellulose membrane ([…]) using the iBlot® Gel Transfer Stacks Nitrocellulose kit Mini (Invitrogen). After blocking nonspecific sites for 1 h at room temperature in a solution of 1X TBS at 5% milk, the membrane was incubated with rabbit anti-H3K79me2 (ab3594, 1/1000) or anti-H3 (ab1791)1/1000) overnight at 4 °C or 1 h at RT. The membrane was then washed three times for 5 min in a 1X TBS solution containing 0.05% Tween20 and was then incubated with an HRP anti-rabbit secondary antibody (NA934V, 1/10,000) for 1 h at RT. […]

[5] = test system: MOLM-13 cells (MLL-AF9); assay: Cell proliferation, trypan blue counting; type: cell-based; conditions: Homo sapiens, 360 h; MOLM-13 (AF9), 15-day treatment; read-out: EC50 of the proliferation inhibition
[6] = test system: NOMO-1 cells (MLL-AF9); assay: Cell proliferation, trypan blue counting; type: cell-based; conditions: Homo sapiens, 360 h; NOMO-1 (AF9), 15-day treatment; read-out: EC50 of the proliferation inhibition
Description: (§3) For assessment of cell proliferation and viability in human cell lines, exponentially growing cells were placed, in triplicate, in 96-well plates at a density of 35,000 cells/well at a final volume of 100 µL. […] The viable cell number was determined every 3–4 days for up to 15 days to 21 days using trypan blue counting using Cellometer Disposable Counting Chambers for the Cellometer Mini Automated Cell Counter.

[7] = test system: KOPN8 cells (MLL-ENL); assay: Cell proliferation, trypan blue counting; type: cell-based; conditions: Homo sapiens, KOPN-8, 360 h, 15-day treatment, read-out: EC50 of the proliferation inhibition
Description: as §3

[8] = test system: MV4-11 cells; assay: Flow cytometry apoptosis analysis (Annexin V-APC/7-AAD); type: cell-based, human; conditions: MV4-11
Description: as §1, §2

[9] = test system: MV4-11 cells (MLL-AF4); assay: Cell proliferation and viability, trypan blue counting; type: cell-based, human

Sequence of recombinant hDOT1L (Q8TEK3 1-416): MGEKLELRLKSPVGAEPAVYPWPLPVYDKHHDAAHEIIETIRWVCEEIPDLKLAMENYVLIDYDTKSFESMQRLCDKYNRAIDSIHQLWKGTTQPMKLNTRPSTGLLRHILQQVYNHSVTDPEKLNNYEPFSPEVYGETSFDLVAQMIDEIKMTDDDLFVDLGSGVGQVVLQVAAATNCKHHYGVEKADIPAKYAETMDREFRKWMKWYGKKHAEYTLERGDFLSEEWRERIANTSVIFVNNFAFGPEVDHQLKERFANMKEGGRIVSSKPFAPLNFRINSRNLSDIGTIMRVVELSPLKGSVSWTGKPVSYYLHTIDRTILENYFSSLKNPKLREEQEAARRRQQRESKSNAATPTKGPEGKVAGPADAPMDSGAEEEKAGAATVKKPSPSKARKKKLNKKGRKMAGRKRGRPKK

CC(C)[C@@H](CCCNC(=O)Nc1ccc(C(C)(C)C)cc1)N[C@H]1C[C@@H](n2cnc3c(N)ncnc32)[C@H](O)[C@@H]1O [Dia1, 1-((R)-4-(((1S,2R,3S,4R)-4-(6-amino-9H-purin-9-yl)-2,3-dihydroxycyclopentyl)amino)-5-methylhexyl)-3-(4-(tert-butyl)phenyl)urea]
IC50 [1]: 316 nM

CC(C)N(CCCNC(=O)Nc1ccc(C(C)(C)C)cc1)C[C@H]1O[C@@H](n2ccc3c(N)ncnc32)[C@H](O)[C@@H]1O [EPZ-4777, reference compound]
half-life [2]: 5.3 min

CC(C)N(C[C@H]1O[C@@H](n2cnc3c(N)ncnc32)[C@H](O)[C@@H]1O)[C@H]1C[C@@H](CCc2nc3cc(C(C)(C)C)ccc3[nH]2)C1 [EPZ-5676, reference compound]
effect on the cell cycle [3]: increase in cells in subG1 | H3K79me2 methylation compared to DMSO treated cells [4]: efficient decrease in methylation | EC50 [5]: 92 ± 2 nM | half-life [2]: 5.7 min | EC50 [6]: 562 ± 15 nM | EC50 [7]: 86 ± 4 nM | effect on apoptosis [8]: increase in apoptosis | EC50 ([9]; Homo sapiens, 360 h, MV4-11 (AF4), 15-day treatment, read-out: EC50 of the proliferation inhibition): 21 ± 1 nM | effect on cell viability / proliferation ([9]; MV4-11, after 8 days of treatment): cell viability decreased by half

Reference: paper PMC8434109, “Synthesis and Biological Activity of a Cytostatic Inhibitor of MLLr Leukemia Targeting the DOT1L Protein” (Molecules, 2021)
